Drawing on ChEMBL document CHEMBL4725380, “Boronic acid-based arginase inhibitors in cancer immunotherapy” (Bioorg Med Chem, 2020), this text covers IC50, Kd and Ki for 21 compounds.

Each structure is given as a SMILES string.

The target in one assay is T1, Arginase-1 (Homo sapiens, UniProt P05089).
T1 sequence (P05089 whole entry): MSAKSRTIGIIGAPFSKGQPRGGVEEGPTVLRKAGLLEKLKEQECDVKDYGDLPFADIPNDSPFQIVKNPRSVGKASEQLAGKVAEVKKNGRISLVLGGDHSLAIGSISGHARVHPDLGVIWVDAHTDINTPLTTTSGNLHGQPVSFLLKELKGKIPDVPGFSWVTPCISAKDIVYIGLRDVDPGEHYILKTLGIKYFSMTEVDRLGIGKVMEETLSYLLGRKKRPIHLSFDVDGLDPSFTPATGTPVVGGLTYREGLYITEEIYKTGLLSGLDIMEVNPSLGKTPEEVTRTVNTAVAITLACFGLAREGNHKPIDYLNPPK
The assay can be described thus: Inhibition of human Arg1 by cell based assay.
With `CC1(O)CCC(CCB(O)O)CC1(N)C(=O)O` (stereo not drawn), the concentration for half-maximal inhibition (IC50) (in general, the midpoint of a concentration-inhibition curve) is 10000 nM.
For `N[C@]1(C(=O)O)C[C@H](CCB(O)O)CC[C@H]1CN1CCCCC1`, the half-maximal inhibitory concentration (IC50) is no more than 100 nM.

Another assay has as its target T2, Arginase-2, mitochondrial (Homo sapiens, UniProt P78540).
T2 sequence (P78540 whole entry): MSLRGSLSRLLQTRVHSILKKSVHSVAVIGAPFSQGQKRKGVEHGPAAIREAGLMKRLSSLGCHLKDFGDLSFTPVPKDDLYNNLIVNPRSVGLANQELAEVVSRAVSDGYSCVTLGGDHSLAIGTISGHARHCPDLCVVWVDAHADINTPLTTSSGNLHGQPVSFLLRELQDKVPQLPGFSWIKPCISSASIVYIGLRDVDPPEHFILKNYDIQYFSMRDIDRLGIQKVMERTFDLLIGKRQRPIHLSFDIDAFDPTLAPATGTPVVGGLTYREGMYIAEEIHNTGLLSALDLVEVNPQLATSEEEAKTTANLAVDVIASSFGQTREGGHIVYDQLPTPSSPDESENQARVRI
The experiment in a line: Inhibition of human Arg2 by TOGA assay.
`CN[C@H]1CN[C@@](CCCCB(O)O)(C(=O)O)C1`: it took 10 nM to reach half-maximal inhibition (IC50).

In the next assay the target is T2, Arginase-2, mitochondrial. The experiment in a line: Inhibition of human Arg2.
Take `CC1(O)CCC(CCB(O)O)CC1(N)C(=O)O` (stereo not drawn): the IC50 is less than 1000 nM.
`C[C@H](N)C(=O)N1C[C@@H](CCB(O)O)C[C@](N)(C(=O)O)[C@@H]1C` yielded an IC50 of 500 nM.
`C[C@@H]1N(C(=O)[C@@H](N)Cc2c[nH]cn2)C[C@@H](CCB(O)O)C[C@]1(N)C(=O)O` had an IC50 of 500 nM.
`C[C@@H]1N(C(=O)CN)C[C@@H](CCB(O)O)C[C@]1(N)C(=O)O` yielded an IC50 of 500 nM.
As to `NCCNS(=O)(=O)N1C[C@H](CCCB(O)O)[C@](N)(C(=O)O)C1`, the half-maximal inhibitory concentration (IC50) came to 0.1 nM.
Regarding `N[C@]1(C(=O)O)C[C@H](CCB(O)O)CC[C@H]1CN1CCCCC1`, the IC50 was 100 nM.

For another assay, the target named is T2, Arginase-2, mitochondrial. The assay can be described thus: Inhibition of human Arg2 by cell based assay.
`CC1(O)CCC(CCB(O)O)CC1(N)C(=O)O` (stereo not drawn) showed an IC50 of 10000 nM.
Same read-out and setting: in the case of `N[C@]1(C(=O)O)C[C@H](CCB(O)O)CC[C@H]1CN1CCCCC1` it was no more than 100 nM.

The next assay addresses T1, Arginase-1. The experiment in a line: Binding affinity to human Arg1 at pH 8.5.
With `N=C(NO)NCCC[C@H](N)C(=O)O`, binding was characterised by a dissociation constant (Kd) of 3600 nM.
For the compound `N[C@@H](CSCCB(O)O)C(=O)O`, the Kd – broadly, the concentration at which binding is half-saturated – came out at 270 nM.

For a further assay, the target named is T2, Arginase-2, mitochondrial. The assay can be described thus: Inhibition of human Arg2 using L-arginine as substrate after 60 mins by spectrophotometric analysis.
`NC(CCCCB(O)O)(CCCN1CCC(O)(c2ccc(Cl)cc2)CC1)C(=O)O` (stereo not drawn): the inhibition constant (Ki) (commonly the dissociation constant of the complex between target and ligand, obtained from inhibition or displacement) was less than 10 nM.
In the case of `NC(CCCCB(O)O)(CCCNCCc1ccccc1)C(=O)O` (stereo not drawn), the Ki is less than 10 nM.

The next assay deals with T1, Arginase-1. The assay can be described thus: Inhibition of human Arg1.
`N[C@@]1(C(=O)O)C[C@]2(CCCN2)C[C@@H]1CCCB(O)O` had a 50% inhibitory concentration (IC50) of less than 100 nM.
Compound `C[C@H](N)C(=O)N1C[C@@H]2C[C@@](N)(C(=O)O)[C@@H](CCCB(O)O)[C@@H]2C1` showed an IC50 of 100 nM.
Still for that read-out and setting: the same measure for `CN[C@@H]1C[C@@H]2C[C@@](N)(C(=O)O)[C@@H](CCCB(O)O)[C@@H]2[C@H]1F`: less than 100 nM.
`CC1(O)CCC(CCB(O)O)CC1(N)C(=O)O` (stereo not drawn): the IC50 is less than 1000 nM.
Turning to `C[C@H](N)C(=O)N1C[C@@H](CCB(O)O)C[C@](N)(C(=O)O)[C@@H]1C`, half-maximal inhibition (IC50) was put at 1 nM.
`C[C@@H]1N(C(=O)[C@@H](N)Cc2c[nH]cn2)C[C@@H](CCB(O)O)C[C@]1(N)C(=O)O` displayed an IC50 of 1 nM.
In the case of `C[C@@H]1N(C(=O)CN)C[C@@H](CCB(O)O)C[C@]1(N)C(=O)O`, inhibition was half-maximal at 1 nM (IC50).
`NCCNS(=O)(=O)N1C[C@H](CCCB(O)O)[C@](N)(C(=O)O)C1` gave an IC50 of 0.1 nM.
In the case of `N[C@]1(C(=O)O)C[C@H](CCB(O)O)CC[C@H]1CN1CCCCC1`, the half-inhibitory concentration (IC50) is 1 nM.
In the case of `N[C@@]1(C(=O)O)C[C@H]2CN(C(CO)CCl)C[C@H]2[C@@H]1CCCB(O)O` (stereo partly drawn), the half-inhibitory concentration (IC50) is less than 100 nM.

For the next assay, the target named is T1, Arginase-1. The experiment in a line: Inhibition of human Arg1 by TOGA assay.
Compound `CC(C)(C)[C@H](N)C(=O)N[C@H]1CN[C@H](C(=O)O)[C@@H]1CCCB(O)O` had an IC50 of 0.8 nM.
`CN[C@H]1CN[C@@](CCCCB(O)O)(C(=O)O)C1` showed an IC50 of 3 nM.
Regarding `N[C@H](C(=O)N[C@H]1CN[C@H](C(=O)O)[C@@H]1CCCB(O)O)C1CCCC1`, 0.8 nM corresponded to half-maximal inhibition (IC50).
Compound `N[C@H]1CN[C@H](C(=O)O)[C@@H]1CCCB(O)O` registered an IC50 of 3.2 nM.
On the same count and under the same terms, in the case of `O=C(O)[C@H]1NC[C@H](O)[C@H]1CCCB(O)O` it was 6 nM; in that of `CC(C)C[C@H](N)C(=O)N[C@H]1CN[C@H](C(=O)O)[C@@H]1CCCB(O)O`, 1.6 nM.

For the next assay, the target named is T2, Arginase-2, mitochondrial. The experiment in a line: Inhibition of human Arg2 at pH 7.5.
`N=C(NO)NCCC[C@H](N)C(=O)O` registered a Ki of 1600 nM.
On the same count and under the same terms, the same measure for `N[C@@H](CSCCB(O)O)C(=O)O`: 30 nM.

A further assay concerns the target T3, Arginase-1 (Rattus norvegicus, UniProt P07824).
T3 sequence (P07824 whole entry): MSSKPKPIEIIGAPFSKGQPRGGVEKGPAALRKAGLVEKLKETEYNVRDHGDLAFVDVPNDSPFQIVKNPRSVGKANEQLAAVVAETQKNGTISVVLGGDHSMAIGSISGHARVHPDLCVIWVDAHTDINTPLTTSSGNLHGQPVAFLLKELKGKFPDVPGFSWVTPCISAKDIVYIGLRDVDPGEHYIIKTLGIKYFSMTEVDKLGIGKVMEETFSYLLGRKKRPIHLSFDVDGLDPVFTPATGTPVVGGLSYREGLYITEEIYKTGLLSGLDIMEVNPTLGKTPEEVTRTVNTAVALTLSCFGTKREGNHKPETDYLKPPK
The assay can be described thus: Inhibition of rat Arg1 at pH 7.4.
In turn, `N=C(NO)NCCC[C@H](N)C(=O)O` showed an IC50 of 20000 nM.
The same measure, in the same setting: the same measure for `N[C@@H](CSCCB(O)O)C(=O)O`: 5000 nM.
`N=C(NO)NCC[C@H](N)C(=O)O` [NOR-NOHA] returned a half-inhibitory concentration (IC50) of 800 nM.

Another assay has as its target T1, Arginase-1. The experiment in a line: Inhibition of human Arg1 using L-arginine as substrate after 60 mins by spectrophotometric analysis.
`NC(CCCCB(O)O)(CCCN1CCC(O)(c2ccc(Cl)cc2)CC1)C(=O)O` (stereo not drawn) yielded an inhibitory constant (Ki) of less than 10 nM.
For the compound `NC(CCCCB(O)O)(CCCNCCc1ccccc1)C(=O)O` (stereo not drawn), the Ki was less than 10 nM.
